Source: patent US20140196172A1, “Organelle Targeting Nanocarriers” (Her Majesty the Queen in Right of Canada, as Repre sented …, priority 2011, published 2014)

Key:
[1] = tested on: tobacco protoplasts; assay: Incubation of tobacco protoplasts with fluorescently labeled peptides, confocal microscopy; type: cell-based, Nicotiana benthamiana; conditions: fluorescein-labelled peptide 20 μM, 1 hour, confocal (Olympus)
Description: Nicotiana benthamiana plants are grown for 6-8 weeks and kept in the dark for 24 hrs prior to all experiments. All pipetting is done slowly with wide bore pipette tips to prevent protoplast lysis. Leaves are cut on the underside in many shallow thin slices, with the center vein taken out, and incubated underside down with enzyme digest solution [2% cellulase and 2% macerozyme (Yakult Honsha Co Ltd, Japan) in CPW (cell protoplast washing) solution, pH 5.6 (Frearson E M, Power J B, Cocking E C (1973) Dev Biol 33: 130-137)] in […] Petri dishes for 3-5 hrs at 28° C. After incubation, leaves are gently shaken with forceps to release any remaining protoplasts, and medium is gently filtered through […] sieves and transferred into 50 mL centrifuge tubes. The medium is spun for 5 min at 300 g at 4° C., and a floating band of protoplasts is removed from the top of the suspension, resuspended in W5 wash solution (154 mM NaCl, 125 mM CaCl2.2H2O, 5 mM KCl, 5 mM glucose, 0.5 M mannitol adjusted to pH 5.8 with 0.1 M KOH), and spun for 3 mins at 300 g at 4° C. The pellet is gently layered on 5 mL of 20% maltose in a 15 mL centrifuge tube, and centrifuged 5 mins at 300 g. A floating band in the center of the solution is carefully removed and resuspended with MaMg solution (15 mM MgCl2, 0.1% MES, 0.4 M mannitol, adjusted to pH 5.6 with KOH), and spun for 3 mins at 300 g at 4° C. The protoplast suspension is diluted to 100,000 cells/ml using a hemocytometer.
A stock solution of fluoresceinated mTPs or cTPs (100 μM) prepared with sterile optimum water is added to protoplast suspension at a final concentration of 20 μM. Each suspension is incubated at room temperature for 1 hour in the dark. Following incubation, 25% Trypsin EDTA is added for 5 minutes and the solution is centrifuged for 2 minutes at 120 g. The pellet is resuspended in fresh MaMg media, and 1.5 μL MitoTracker® Orange CM-H2TMRos (M7511, Invitrogen) is added for 15 minutes, followed by centrifugation for 2 minutes at 120 g. Protoplasts are mounted on slides in 1% low melting point agar (2:1 ratio of agar to protoplast suspension) for confocal microscopy (Olympus; both XY cross section and XYZ depth images).
Cells are observed using a confocal microscope (Nikon C1, Nikon Canada Inc. or Olympus FluoView™) to analyse the localization of the fluoresceinated mTPs or cTPs (excitation wavelength 490 nm/emission wavelength 520 nm). Chloroplasts are identified by autofluorescence. The fluorescent dye MitoTracker® Orange CM-H2TMRos (M7511, Invitrogen) is used to stain mitochondria (excitation wavelength 554 nm/emission wavelength 576 nm). Fluorescence emissions are collected in z-confocal planes of […] and analyzed using EZ-C1 Software Version 3.6 (Nikon) or Olympus FluoView™ software version 2.0b (Olympus).

[2] = tested on: F1112 (bovine colonic cell line); assay: Uptake of labeled peptides by F1112 cells, photometric cell imaging; type: cell-based; conditions: for Average concentration of labeled peptide measured in cells, F1112: cells exposed to labeled peptide at 17 μM; for Photometric Cell Imaging (average counts/sec) F1112: 1 hr, background about 1×10^5 counts/sec
Description: (§1) Caco-2 and F1112 cells are cultured in Dulbecco's Modified Eagle Medium (DMEM) containing 10% (v/v) fetal bovine serum (FBS) and 50 μg/ml gentamycin at 37° C. in a 95% humidified atmosphere containing 5% CO2. The cells are grown in Falcon™ […] 75 cm^2 cell culture flasks until they reach confluency, then are detached with 0.25% trypsin and 0.02% EDTA and washed with DMEM.
(§2) Preparations used for photometric cell imaging are prepared by adding 1000 cells to a Nunc coverglass chamber (2.5 cm^2). Cells are cultured as described above for 3 to 7 days. The cell monolayers are rinsed three times with epithelial cell saline (pH 7.4).
(§3) Varying concentrations of fluoresceinated mTPs (100 μM) are added to epithelial cell saline to obtain a final working volume of 400 μl. Final concentrations added to the Caco-2, F1112 and MG cell monolayers as described above are 17 μM, 9 μM and 4 μM. Cells are incubated with the peptides for 1 hr in the dark at 37° C. in a 95% humidified atmosphere containing 5% CO2. At the end of the incubation period, the cell monolayer is rinsed three times with epithelial cell saline and 500 μl of epithelial cell saline is added.
(§4) Uptake of labeled peptides by cells is quantified using a photometric detector/cell-imaging system (PTI). An excitation scan is run to determine if uptake has occurred as indicated by peaks at the appropriate wavelengths and if the amount changes in a dose-dependent manner compared to unlabeled cells. A time-based scan is then performed at the optimal excitation and emission wavelength to quantify total uptake, using about 20 cells/view/replicate.

[3] = tested on: MG (bovine mammary gland) cells; assay: Uptake of labeled peptides by MG cells, photometric cell imaging; type: cell-based; conditions: for Average concentration of labeled peptide measured in cells, MG: cells exposed to labeled peptide at 17 μM; for Photometric Cell Imaging (average counts/sec) MG: 1 hr, background about 1×10^5 counts/sec
Description: as §1, with “MG” for “Caco-2 and F1112”, “20%” for “10%”, “Falcon™ 25” for “Falcon™”
as §2, §3, §4

Sequence | Organelle localization [1] | Average concentration of labeled peptide measured in cells, F1112 [2] | Photometric Cell Imaging (average counts/sec) F1112 ([2]; labeled peptide 4 μM) | Photometric Cell Imaging (average counts/sec) F1112 ([2]; labeled peptide 9 μM) | Photometric Cell Imaging (average counts/sec) F1112 ([2]; labeled peptide 17 μM) | Average concentration of labeled peptide measured in cells, MG [3] | Photometric Cell Imaging (average counts/sec) MG ([3]; labeled peptide 4 μM) | Photometric Cell Imaging (average counts/sec) MG ([3]; labeled peptide 9 μM) | Photometric Cell Imaging (average counts/sec) MG ([3]; labeled peptide 17 μM)
MAALIPAIASLPRAQVEKPHPMPVSTRPGLVS (listed as Triticum aestivum) [cTP4] | localize to chloroplasts | – | – | – | – | – | – | – | –
MQTLTASSSVSSIQRHRPHPAGRRSSSVTFS (listed as Triticum aestivum) [cTP2] | localize to chloroplasts | – | – | – | – | – | – | – | –
MFSYLPRYPLRAASARALVRATRPSYRSALLRYQ (listed as Triticum aestivum) [mTP1] | – | 49 nm | 330000 counts/sec | 560000 counts/sec | 1200000 counts/sec | 78 nm | 400000 counts/sec | 1800000 counts/sec | 1900000 counts/sec
MAAWMRSLFSPLKKLWIRMH (Zea mays) [mTP2] | localize to mitochondria | 70 nm | 450000 counts/sec | 1800000 counts/sec | 1700000 counts/sec | 62 nm | 140000 counts/sec | 160000 counts/sec | 1500000 counts/sec
MLFRLRRSVRLRGLLA (listed as Arabidopsis thaliana) [mTP5] | – | 60 nm | 440000 counts/sec | 2000000 counts/sec | 1600000 counts/sec | 60 nm | 440000 counts/sec | 1400000 counts/sec | 1600000 counts/sec
MGGCVSTPKSCVGAKLR (listed as Arabidopsis thaliana) [cTP1] | localize to chloroplasts | – | – | – | – | – | – | – | –
MSSPPPLFTSCLPASSPSIRRDSTSGSVTSPLR (listed as Arabidopsis thaliana) [cTP5] | localize to chloroplasts | – | – | – | – | – | – | – | –
MKLLWRLILSRKW (listed as Arabidopsis thaliana) [mTP3] | localize to mitochondria | 53 nm | 350000 counts/sec | 1100000 counts/sec | 1300000 counts/sec | 62 nm | 430000 counts/sec | 1000000 counts/sec | 1500000 counts/sec
MWWRRSRTNSLRYT (listed as Arabidopsis thaliana) [mTP4] | – | 144 nm | 250000 counts/sec | 300000 counts/sec | 3500000 counts/sec | 58 nm | 430000 counts/sec | 1200000 counts/sec | 1400000 counts/sec
